Measured values taken from patent publication US20220175771A1, “CANCER TREATMENT MODALITIES” (priority 2017, published 2022).

Legend:
Oral bioavailability = conditions: in vivo
[1] = system: SMARCA2/SMARCA4 dual loss NSCLC cell line xenografts; assay: NSCLC xenograft model in vivo; conditions: ~250 mg/kg body weight

- oral bioavailability (Oral bioavailability): orally bioavailable
Structure (SMILES): CCN(c1cc(-c2ccc(CN3CCOCC3)cc2)cc(C(=O)NCc2c(C)cc(C)[nH]c2=O)c1C)C1CCOCC1 [Compound 44, tazemetostat]
- tumor growth inhibition ([1]; dual loss xenografts compared with SMARCA4 single loss xenografts): more prominent
- tumor regression ([1]; in two of the four SMARCA2/SMARCA4 dual loss cell lines): tumor regression was observed
